# Results reported in patent US11084795B2, “CFTR regulators and methods of use thereof” (The Regents of the University of California, priority 2015, dated 2021).
# Values joined by “and” are separate entries in the source; they are usually repeats but may differ in a detail not shown here. Equal entries are not always repeated. “Also recorded” adds a separate entry of the source. Where two headings read alike, the source gives them in different places.
# What was measured:
# ΔF508-CFTR = biological target: T1, ΔF508-CFTR (Homo sapiens, UniProt P13569, DEL508-508); assay: Short-circuit current in FRT cells expressing ΔF508-CFTR corrected with VX-809; format: cell-based; settings: after overnight incubation with a corrector
# T1 construct: expressed in transfected cells; host or cells: Fischer rat thyroid (FRT) cells
# T1 sequence (P13569 with tags, fused parts or gaps DEL508-508): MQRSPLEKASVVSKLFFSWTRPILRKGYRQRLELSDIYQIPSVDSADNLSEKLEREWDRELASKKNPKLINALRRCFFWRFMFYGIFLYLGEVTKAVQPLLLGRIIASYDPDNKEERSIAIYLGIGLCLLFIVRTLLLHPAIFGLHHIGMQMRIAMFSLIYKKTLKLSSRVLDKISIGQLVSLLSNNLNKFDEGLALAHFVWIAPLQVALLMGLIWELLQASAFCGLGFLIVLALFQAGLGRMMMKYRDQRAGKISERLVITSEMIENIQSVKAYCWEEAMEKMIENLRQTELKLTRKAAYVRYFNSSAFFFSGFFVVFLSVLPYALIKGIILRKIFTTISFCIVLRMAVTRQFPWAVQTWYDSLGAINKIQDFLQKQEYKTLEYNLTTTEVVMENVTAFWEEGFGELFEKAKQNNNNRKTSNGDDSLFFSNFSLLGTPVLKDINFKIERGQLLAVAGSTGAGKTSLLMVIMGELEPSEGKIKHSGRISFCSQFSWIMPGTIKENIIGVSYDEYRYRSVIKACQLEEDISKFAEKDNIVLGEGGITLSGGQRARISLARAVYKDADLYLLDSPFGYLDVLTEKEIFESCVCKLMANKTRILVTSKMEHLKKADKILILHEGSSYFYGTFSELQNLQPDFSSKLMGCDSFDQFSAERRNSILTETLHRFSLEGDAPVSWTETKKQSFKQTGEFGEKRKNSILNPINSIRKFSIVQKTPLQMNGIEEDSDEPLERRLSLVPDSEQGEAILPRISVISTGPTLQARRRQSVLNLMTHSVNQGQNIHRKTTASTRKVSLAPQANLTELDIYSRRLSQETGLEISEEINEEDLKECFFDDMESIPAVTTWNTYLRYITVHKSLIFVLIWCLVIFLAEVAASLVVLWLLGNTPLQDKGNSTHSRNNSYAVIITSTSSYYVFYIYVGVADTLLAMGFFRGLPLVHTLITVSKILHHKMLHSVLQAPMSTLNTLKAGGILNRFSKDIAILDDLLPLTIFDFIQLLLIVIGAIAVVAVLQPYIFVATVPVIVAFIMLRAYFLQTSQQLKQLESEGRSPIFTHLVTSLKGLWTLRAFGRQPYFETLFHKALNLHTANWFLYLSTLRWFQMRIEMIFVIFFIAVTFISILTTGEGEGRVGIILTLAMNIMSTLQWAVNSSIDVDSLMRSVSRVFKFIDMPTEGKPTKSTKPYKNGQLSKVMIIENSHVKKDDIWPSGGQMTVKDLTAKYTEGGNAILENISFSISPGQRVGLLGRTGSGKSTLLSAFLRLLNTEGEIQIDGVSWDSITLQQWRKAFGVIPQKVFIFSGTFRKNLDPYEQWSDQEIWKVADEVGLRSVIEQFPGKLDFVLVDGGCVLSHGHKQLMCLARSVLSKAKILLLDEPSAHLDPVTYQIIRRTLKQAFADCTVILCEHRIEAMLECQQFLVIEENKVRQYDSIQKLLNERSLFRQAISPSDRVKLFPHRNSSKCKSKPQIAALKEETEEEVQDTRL
# Procedure: FIGS. 9A-9E. Characterization of CFTR activation by CFTRact-J027. Short-circuit current measured in FRT cells expressing human wild-type CFTR (FIG. 9A) and ΔF508-CFTR (FIG. 9C) showing responses to indicated concentrations of forskolin (fsk), CFTRact-J027, and VX-770. The ΔF508-CFTR-expressing FRT cells were corrected with 3 μM VX-809 at 37° C. for 24 h before measurement. CFTRinh-172 (Inh-172, 10 μM) was added where indicated. FIG. 9B. CFTRact-J027 concentration-dependent activation of wild-type CFTR Cl^− current (S.E.; n=3 cultures). FIG. 9D. Short-circuit current in mouse colon showing responses to indicated concentrations of forskolin (fsk), CFTRact-J027, and CFTRinh-172. FIG. 9E. Assay of cAMP concentration in FRT cells measured following 10-min incubation with indicated concentrations of forskolin and 5 μM CFTRact-J027. Positive controls included forskolin (100 nM and 20 μM), and forskolin plus 3-isobutyl-1-methylxanthine (IBMX, 100 μM) (mean±SE, n=4-8).
# human wildtype CFTR [1] = biological target: T2, human wildtype CFTR (Homo sapiens, UniProt P13569); assay: Short-circuit current (Isc) in FRT cells expressing human wild-type CFTR
# T2 sequence (P13569 whole entry): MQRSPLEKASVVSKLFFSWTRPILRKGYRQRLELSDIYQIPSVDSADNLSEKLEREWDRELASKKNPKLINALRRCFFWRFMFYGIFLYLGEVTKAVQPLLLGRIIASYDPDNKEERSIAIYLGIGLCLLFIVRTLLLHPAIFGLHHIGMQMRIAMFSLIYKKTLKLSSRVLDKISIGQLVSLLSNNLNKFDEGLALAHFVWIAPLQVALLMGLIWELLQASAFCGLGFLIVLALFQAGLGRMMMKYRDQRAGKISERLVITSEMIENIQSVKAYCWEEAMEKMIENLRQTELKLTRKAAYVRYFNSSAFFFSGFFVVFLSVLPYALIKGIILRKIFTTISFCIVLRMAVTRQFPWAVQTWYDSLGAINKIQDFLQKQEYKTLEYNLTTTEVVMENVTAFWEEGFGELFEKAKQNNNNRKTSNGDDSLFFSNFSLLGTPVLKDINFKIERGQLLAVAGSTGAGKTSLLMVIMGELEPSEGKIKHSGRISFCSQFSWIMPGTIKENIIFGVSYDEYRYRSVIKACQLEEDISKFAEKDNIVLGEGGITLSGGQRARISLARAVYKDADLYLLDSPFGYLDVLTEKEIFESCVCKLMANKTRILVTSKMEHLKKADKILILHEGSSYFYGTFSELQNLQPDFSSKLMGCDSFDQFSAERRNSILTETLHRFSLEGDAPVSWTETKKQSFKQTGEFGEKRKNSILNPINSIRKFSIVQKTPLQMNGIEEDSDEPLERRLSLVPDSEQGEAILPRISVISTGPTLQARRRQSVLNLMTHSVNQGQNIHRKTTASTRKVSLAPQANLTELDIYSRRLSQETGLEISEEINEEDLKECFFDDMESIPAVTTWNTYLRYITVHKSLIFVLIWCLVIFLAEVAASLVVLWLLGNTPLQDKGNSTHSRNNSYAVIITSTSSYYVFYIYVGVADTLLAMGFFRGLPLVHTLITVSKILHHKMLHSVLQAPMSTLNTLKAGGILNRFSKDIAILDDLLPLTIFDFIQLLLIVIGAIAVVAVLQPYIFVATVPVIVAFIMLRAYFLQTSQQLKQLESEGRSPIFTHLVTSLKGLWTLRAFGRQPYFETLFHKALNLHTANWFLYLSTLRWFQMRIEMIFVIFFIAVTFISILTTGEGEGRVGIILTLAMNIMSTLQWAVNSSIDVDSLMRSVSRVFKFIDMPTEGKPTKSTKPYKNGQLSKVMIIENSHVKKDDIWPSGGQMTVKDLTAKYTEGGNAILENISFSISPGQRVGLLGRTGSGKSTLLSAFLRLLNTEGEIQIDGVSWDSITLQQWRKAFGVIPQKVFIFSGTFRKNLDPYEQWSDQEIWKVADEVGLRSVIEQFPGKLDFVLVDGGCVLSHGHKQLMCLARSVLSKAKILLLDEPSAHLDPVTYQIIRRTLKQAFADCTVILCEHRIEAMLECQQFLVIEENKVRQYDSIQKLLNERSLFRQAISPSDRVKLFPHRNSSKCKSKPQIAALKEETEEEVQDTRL
# human wildtype CFTR [2] = biological target: T2, human wildtype CFTR; assay: Patch-clamp (whole-cell and inside-out) in FRT cells expressing human wildtype CFTR; format: cell-based; set-up: expressed in transfected cells
# Excerpt: The pipette (intracellular) solution contained (in mM): 120 CsCl, 10 TEA-Cl, 0.5 EGTA, 1 MgCl2, 10 Cs-HEPES, 40 mannitol, 1 ATP (7.4). For inside-out patch-clamp experiments the pipette solution contained (in mM): 150 N-methyl-D-glucamine chloride (NMDG-Cl), 3 CaCl2, 2 MgCl2, 10 Na-Hepes (pH 7.3). […] Pipette electrical resistance for both whole-cell and inside-out experiments was 3-5 MΩ. The protocol for stimulation consisted of 600-ms voltage steps from −100 to +100 mV in 20 mV increments starting from a holding potential of −60 mV. The interval between steps was 4 s. Membrane currents were filtered at 1 kHz and digitized at 5 kHz. Data were analyzed using the Igor software (Wavemetrics, Portland, Oreg.) with custom software kindly provided by Dr. Oscar Moran.
# loperamide-treated mice = assay: Loperamide-induced mouse model of constipation; settings: for ED50: Mus musculus
# [3] = Pharmacokinetics in mice (plasma LC/MS); format: in vivo, mouse
# Procedure: (§1) Blood was collected at 15, 30, 60, 150, 240 and 360 min after treatment by orbital puncture and centrifuged at 5000 rpm for 15 min to separate plasma. Plasma samples (60 μL) were mixed with 300 μL acetonitrile and centrifuged at 13000 rpm for 20 min, and 90 μL of the supernatant was used for LC/MS. The solvent system consisted of a linear gradient from 5 to 95% acetonitrile over 16 min (0.2 ml/min flow). Mass spectra was acquired on a mass spectrometer (Waters 2695 and Micromass ZQ) using electrospray (+) ionization, mass ranging from 100 to 1500 Da, cone voltage 40 V. Calibration standards were prepared in plasma from untreated mice to which known amounts of CFTRact-J027 were added.
# as §1, with “Pharmacokinetics. […] Blood” for “Blood”
# Solubility = format: physicochemical; settings: read-out: solubility limit
structure (smiles),measurement,setting,value
"Nc1ccc([N+](=O)[O-])cc1-c1nc2ccccc2n(Cc2ccccc2)c1=O [CFTRact-J027, 3-(2-amino-5-nitrophenyl)-1-benzylquinoxalin-2(1H)-one]",potentiation of ΔF508-CFTR,ΔF508-CFTR,substantially less potent than ivacaftor; also recorded: only a weak potentiator
same,CFTR activation at 3 μM,human wildtype CFTR [1]; 3 μM,nearly full activation
same,EC50,"human wildtype CFTR [1]; EC50 for CFTR activation, FRT cells, wild-type CFTR, short-circuit current",~200 nM and 200 nM
same,extent of CFTR activation (Isc),human wildtype CFTR [1]; forskolin produced little or no further increase in current,fully activated CFTR
same,"increase of CFTR activity, whole-cell recording",human wildtype CFTR [2]; 1 μM after 150 nM forskolin,more than four-fold
same,"CFTR activity, inside-out patch",human wildtype CFTR [2]; 1 μM after submaximal ATP and catalytic subunit of PKA,strongly increased CFTR activity
same,"stool weight, pellet number and water content","loperamide-treated mice; 10 mg/kg ip, loperamide-treated mice, 3 h stool",normalized each of the stool parameters
same,"stool output and water content, oral",loperamide-treated mice; 10 mg/kg oral 1 h prior to loperamide,normalized stool output and water content; also recorded: effective in normalizing stool output and water content
same,stool output and water content after chronic administration,"loperamide-treated mice; 10 mg/kg oral for 7 days, loperamide 1 h after final dose",remained effective in normalizing stool output and water content
same,"stool output in control mice, oral","loperamide-treated mice; 10 mg/kg oral, control mice",no effect in control mice
same,ED50,"loperamide-treated mice; ip, read-out: ED50, ip administration, loperamide model, ip",2 mg/kg
same,ED50,"loperamide-treated mice; po, read-out: ED50, oral administration, loperamide model, oral 1 h before loperamide",~0.5 mg/kg
same,effect on stool parameters in cystic fibrosis mice,loperamide-treated mice; cystic fibrosis mice lacking functional CFTR,without effect
same,stool output and water content in control mice,"loperamide-treated mice; ip, non-loperamide-treated mice",did not affect stool output or water content
same,duration of effect,loperamide-treated mice; mice,3 to 4 h
same,serum concentration at 150 min,[3]; 10 mg/kg ip,undetectable
same,oral bioavailability,[3]; 10 mg/kg oral,very low bioavailability; also recorded: minimal bioavailability
same,serum concentration at other time points,[3]; 10 mg/kg oral,undetectable
same,half-life,"[3]; female, CD1, mouse, serum, 10 mg/kg ip, read-out: serum elimination half-life",16 min
same,concentration at 30 min,"[3]; female, CD1, mouse, serum, 10 mg/kg oral",180 nM
same,solubility,Solubility,~20 µM
